Blood glucose levels data for one substance are collected here from patent US7687453B2, “Method for administering insulin to the buccal region” (Generex Pharmaceuticals Incorporated, priority 1998, dated 2010).

The assay relates to meal glucose. Kind of assay: Meal glucose, chewable gum insulin vs injection, Type II diabetic volunteers (Example 13). It counts as in vivo, human. Particulars: injection 10 units, avg of five Type II diabetics, meal 30 min after dosing. Here is the method: The mixed micellar formulation in chewable stick form was tested in diabetic volunteers under controlled conditions to determine the oral insulin effect on meal glucose when compared to injected insulin.
In one set of tests, five Type II diabetic human volunteers who took insulin, by injection three times a day, were studied. In another set of tests the volunteers were tested with the chewable gum insulin, taken orally. The volunteers fasted from midnight prior to the tests, with food being taken 30 minutes after dosing. The meals were standard Sastacal 240 mL liquid diet approved by the Diabetic Society, containing 400 calories.
On the first day, the volunteers received 10 units insulin by injection (regular fast acting insulin, available from Eli Lilly). On the second day, the volunteers received 30 units of the above-prepared chewable gum oral insulin (3 times the injection dose). in both tests, blood glucose levels were monitored every 15 minutes by Bayer's Glucometer Elite.

Take “regular fast acting insulin: regular fast acting insulin, available from Eli Lilly, given by injection (10 units)”: the Blood glucose levels is, setting by setting: (0 min) 8.8 mmol/L; (15 min) 8.2 mmol/L; (30 min) 8.0 mmol/L; (45 min) 8.4 mmol/L; (60 min) 9.2 mmol/L; (75 min) 10.3 mmol/L. The substance also came in with a Blood glucose levels (90 min) of 11.8 mmol/L; a Blood glucose levels (105 min) of 11.6 mmol/L; a Blood glucose levels (120 min) of 11.0 mmol/L; a Blood glucose levels (135 min) of 10.2 mmol/L; a Blood glucose levels (150 min) of 9.6 mmol/L; a Blood glucose levels (165 min) of 9.5 mmol/L. For the same substance, the Blood glucose levels is, setting by setting: (180 min) 9.1 mmol/L; (195 min) 8.7 mmol/L; (210 min) 8.2 mmol/L; (225 min) 8.0 mmol/L; (240 min) 7.5 mmol/L.
